In one data set the test system is plasmid DNA (H2B-GFP). As to the kind of experiment: Agarose gel electrophoresis of plasmid DNA (DNA migration assay). The data set is classed as biochemical. The conditions noted are these: 200 and 400 μM; overnight; room temperature. The protocol: The nature of the interaction between the complexes and pure plasmid DNA was evaluated by agarose gel electrophoresis as described previously with minor modifications (21). Briefly, free ligands, copper complexes, and cisplatin (200 and 400 μM; in 20 μL total volume) were incubated overnight at room temperature with plasmid DNA (200 ng, H2B-GFP, Addgene #11680). NaN3 (final: 37.5 mM in ddH2O) was used as a ROS scavenger. Samples were run on a 1% agarose gel (100 V, 60 min). The experiments were carried out with two biological replicates, and ImageJ software was used to quantify and analyse the intensity of the bands.
In addition to thermal denaturation, we performed a cell-free DNA binding assays followed by gel electrophoresis to further investigate the nature of the interaction between the complexes and DNA. The assay relies on the fact that the relative amount of the supercoiled form of plasmid DNA will change upon the occurrence of nicks since the relaxed form migrates slower and can be easily detected on the gel. […] The ligands had little to no effect on DNA migration except L^7 (Fig. S24A). However, incubation of plasmid DNA with complexes 1 - 8 confirmed binding to DNA and changed the supercoiling status by increasing the nicked circular form (Fig. S24). […] To understand whether the induction of DNA nicks requires ROS, the samples were pre-incubated with a ROS scavenger, NaN3. […]

Another data set concerns A-549 cells. Briefly: Cytotoxicity with ROS scavenger NAC (SRB). The conditions noted are these: 10 mM NAC pre-treatment 2 h, co-treatment 72 h. The data set is classed as cell-based. From the text: (§1) Additionally, to assess whether the ROS induction contributed to the cytotoxicity triggered by these complexes, we used a ROS scavenger, N-acetyl-cysteine (NAC), in combination with 1, 3, 5 or 8. […] Indeed, it is also possible that the cytotoxicity induced by 5 is not by ROS, despite the induction observed in Figure 7A.
(§2) Figure S27- Protective mechanism of NAC against Cu(II) complexes. Addition of NAC can protect cells from the cytotoxic effects of the Cu(II) complexes A-375 (A) and A-549 (B) cells were pre-treated with 10 mM of ROS scavenger N-acetylcysteine (NAC) for 2 h, then co-treated with freshly prepared Cu(II) complexes (1, 3, 5 and 8) for 72 h. Cell viability was measured via SRB assay (2 biological replicates, each done in duplicate). The error bars represent standard error of the mean. Student t-test was used for statistical analysis, *p<0.05, **p<0.01

Data set [1] relates to A-375 cells. As to the kind of experiment: Cytotoxicity with ROS scavenger NAC (SRB). The data set is classed as cell-based. The conditions noted are these: 10 mM NAC pre-treatment 2 h, co-treatment 72 h.
Source text: as §1, §2

Data set [2] relates to A-375 cells. As to the kind of experiment: γH2AX staining for DNA double-strand breaks. The data set is classed as cell-based. The protocol: Indeed, we examined whether DNA nicks induced by the complexes on pure plasmid DNA would reflect in cell culture as increased DNA break formation. To test this, A-375 cells were stained using γH2AX, which is a common marker for DSBs (Figure 7B). […] For complex 1 the opposite effect was observed and despite its lower ability to induce ROS formation, the DSB were the highest among the group.
(§3) 5 × 10^4 number of A-375 and A-549 cells were seeded on 12-well plates, and the next day cells were treated with either copper complexes (calculated IC70 values) or cisplatin (15 μM). Following 48 h of treatment, cells were trypsinized, centrifuged and resuspended in PBS solution supplemented with 1% fetal bovine serum (FBS) (10^6 cells/mL).
The Muse ɣH2A.X Activation Dual Detection Kit (Luminex, MCH200101) protocols were followed with minor changes. 1 × 10^5 cells were mixed with ice-cold 1X Fixation Buffer at the same volume for 5 min. Cells were centrifuged (600 g, 5 min), and the pellet was suspended with 100 μL of ice-cold 1X Permeabilization Buffer (10 min, on ice), and centrifuged again. The cell pellet was resuspended with 50 μL of antibody mixture of (20X) Anti-phospho-Histone H2A.X (Ser139), Alexa Fluor 555 and (20X) Anti-H2A.X, PECy5 antibodies. Following 30 min of antibody staining, cells were centrifuged and resuspended with 1X Assay Buffer. DNA breaks were analysed with Muse Cell Analyzer (Merck Millipore).

For data set [3], the system named is A-375 cells. Briefly: ROS activation via dihydroethidium staining, flow cytometry. Type of data set: cell-based. The conditions noted are these: 48 h.
Source text: Since reactive oxygen species appeared to be involved in the nicking activity of the complexes (Supplementary Figure S24), we investigated whether there was an increase in ROS formation in cells upon drug treatment. Dihydroethidium (DHE) is a reduced form of ethidium, after oxidation with superoxide (ROS), it is converted into 2-hydroxy ethidium, which is a chemical that emits red fluorescence and intercalates DNA. […] Similar results were obtained using A-549 cells, but with much milder induction of ROS except for 8, which remained high (Supplementary Figure S26).
as §3
Oxidative stress levels were assessed by Muse Oxidative Stress Kit (Luminex, MCH100111) using the same protocol as previously described (21).
Background: Flow cytometry measures light scatter and fluorescence of single cells or particles in a stream.

The subject of data set [4] is A-375 cells. As to the kind of experiment: Apoptosis by Annexin V/7-AAD and Caspase 3/7 flow cytometry. Type of data set: cell-based. The conditions noted are these: 48 h, Annexin-V and caspase 3/7. Here is the method:
To determine the mode of cell death, A-375 cells were incubated with the Cu complexes and cisplatin for 48 h and, induction of apoptosis was evaluated using both Annexin-V staining and activation of caspase 3/7 in response to drug treatment. While Annexin-V staining relies on the loss of plasma membrane asymmetry, caspases 3 and 7 are critical proteases, which are responsible for the cleavage of many cellular proteins. […] Similar results were obtained in A-549 cells (Supplementary Figure S28).
as §3
Annexin V & Dead Cell Kit (Luminex, MCH100105) protocols were followed for Annexin V activation. Briefly, 1 × 10^5 cells were stained with Annexin V and 7-AAD solution in a 1:1 ratio and incubated at room temperature for 20 min. The apoptotic cell population was evaluated with Muse Cell Analyzer (Merck Millipore).
Caspase-3/7 Kit (Luminex, MCH100108) protocols were followed for Caspase 3/7 staining. 2 × 10^5 cells were stained with 5 μL of Caspase 3/7 antibody (1:8 dilution in PBS) and incubated at room temperature for 30 min. Then, the cells were stained with 100 μL of 7-AAD antibody mixture (1:75 dilution with 1 × Assay Buffer) for 5 min. Caspase 3/7 and 7-AAD positivity were assessed with Muse Cell Analyzer (Merck Millipore).

Data set [5] is described as follows: Thermodynamic solubility at pH 7.4. The data set is classed as physicochemical. The conditions noted are these: Cu(II) complexes; pH 7.40; 20 mM HEPES; 25.0°C. The protocol: Thermodynamic solubility (S) was measured for the new ligands, L^7 and L^8, since data for the rest of the series was previously reported (9), and for selected Cu(II) complexes: 1, 5 and 6. Solubility was measured for the saturated solutions in water at pH 7.40 in 20 mM HEPES at 25.0 ± 0.1 °C. The concentration was determined by UV-Vis spectrophotometry using the stock solutions of the compounds with known concentrations dissolved in 100% DMSO, 50% and 25% (v/v) DMSO/buffered aqueous solutions for the calibration.

Structures are written as SMILES.

On to `CC(=O)[O-].O=C(NN=Cc1ccc2cccc([O-])c2n1)c1ccccc1.[Cu+2]` [Complex 1, [Cu(HL^1)(AcO)]], for which the “effect on plasmid DNA migration / nicking” value in the data set on plasmid DNA (H2B-GFP) is reported as “highest nicking efficiency”. Also, the “effect of NAC on cytotoxicity” value in the data set on A-549 cells and in the data set on A-375 cells [1] was “significantly reduced” in each case. Further, the “DSB induction (γH2AX), in words” value with A-375 cells [2] is given as “highest levels of DSB induction”.

`[Cu+2].[O-]C(=NN=Cc1ccc2cccc([O-])c2n1)c1ccc(F)cc1` [Complex 3, [Cu(L^3)]3] gave an ROS positivity with A-375 cells [3] of 60%. The “effect of NAC on cytotoxicity” value with A-549 cells and in the data set with A-375 cells [1] was “significantly reduced” each time. Further, in the data set on A-375 cells [4], the “induction of apoptosis, in words” value is “performed well”. Further, the “thermodynamic solubility S 7.4” value in data set [5] was under 1 µM.

`COc1ccc(C([O-])=NN=Cc2ccc3cccc([O-])c3n2)cc1.[Cu+2]` [Complex 5, [Cu(L^5)]3] showed an ROS positivity with A-375 cells [3] of about 80%. In addition, the “DSB induction (γH2AX), in words” value in the data set on A-375 cells [2] was “highest levels of DSB induction”. Besides, the “DNA breaks (γH2AX)” value in the data set with A-375 cells [2] (48 h) is listed as about 80%. Also, in the data set on A-375 cells [4], the “induction of apoptosis, in words” value is listed as “triggered apoptosis only mildly”.
